Drawing on ChEMBL document CHEMBL5653631, “A Potent and Selective ULK1 Inhibitor Suppresses Autophagy and Sensitizes Cancer Cells to Nutrient Stress” (iScience, 2018), this text covers inhibition and fold change (FC) for three molecules.

Test [1] concerns the target T1, Rhodopsin kinase GRK1 (Homo sapiens) (UniProt Q15835).
T1 sequence (whole entry): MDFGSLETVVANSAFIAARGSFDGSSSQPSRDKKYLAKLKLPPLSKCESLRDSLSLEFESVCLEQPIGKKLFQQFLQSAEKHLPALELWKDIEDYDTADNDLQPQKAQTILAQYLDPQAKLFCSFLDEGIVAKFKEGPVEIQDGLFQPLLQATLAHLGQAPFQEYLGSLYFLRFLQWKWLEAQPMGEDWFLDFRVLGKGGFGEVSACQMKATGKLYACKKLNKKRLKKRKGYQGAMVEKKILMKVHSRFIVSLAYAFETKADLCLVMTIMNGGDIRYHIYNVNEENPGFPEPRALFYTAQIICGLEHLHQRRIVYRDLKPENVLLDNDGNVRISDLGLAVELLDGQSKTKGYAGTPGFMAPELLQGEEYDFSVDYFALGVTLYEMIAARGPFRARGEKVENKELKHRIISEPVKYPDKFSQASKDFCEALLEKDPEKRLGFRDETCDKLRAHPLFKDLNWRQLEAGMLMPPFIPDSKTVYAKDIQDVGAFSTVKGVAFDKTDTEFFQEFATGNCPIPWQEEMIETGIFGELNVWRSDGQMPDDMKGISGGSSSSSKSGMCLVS
Nature of the test: Inhibition of human recombinant RHOK at 15 nM in presence of ATP by radiometric assay relative to control.

Test [2] addresses Calcium/calmodulin-dependent protein kinase type II subunit gamma (Homo sapiens) (UniProt Q13555). In words: Inhibition of human recombinant CaMK2g at 15 nM related to control ULK1.
In test [3] the target is Calcium/calmodulin-dependent protein kinase type 1G (Homo sapiens) (UniProt Q96NX5). Nature of the test: Inhibition of human recombinant CaMK1g at 15 nM in presence of ATP by radiometric assay relative to control.
Calcium/calmodulin-dependent protein kinase type 1G (Homo sapiens), sequence (Q96NX5 whole entry): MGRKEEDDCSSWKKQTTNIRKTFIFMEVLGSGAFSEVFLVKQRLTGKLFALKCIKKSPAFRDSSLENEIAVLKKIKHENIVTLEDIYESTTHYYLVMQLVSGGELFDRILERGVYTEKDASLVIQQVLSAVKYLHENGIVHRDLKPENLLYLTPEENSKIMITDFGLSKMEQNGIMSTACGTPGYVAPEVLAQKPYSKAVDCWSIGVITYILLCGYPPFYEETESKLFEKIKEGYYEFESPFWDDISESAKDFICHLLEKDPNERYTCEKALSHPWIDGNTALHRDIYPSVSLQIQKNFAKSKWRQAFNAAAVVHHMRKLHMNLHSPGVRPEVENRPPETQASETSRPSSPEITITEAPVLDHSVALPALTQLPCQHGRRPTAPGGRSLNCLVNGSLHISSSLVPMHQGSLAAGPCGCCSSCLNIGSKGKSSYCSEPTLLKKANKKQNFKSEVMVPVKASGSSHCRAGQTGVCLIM
Test [4] has as its target Insulin receptor (Homo sapiens) (UniProt P06213). In words: Inhibition of human recombinant INSR at 15 nM in presence of ATP by radiometric assay relative to control.
Test [5] addresses Serine/threonine-protein kinase PAK 2 (Homo sapiens) (UniProt Q13177). Nature of the test: Inhibition of human recombinant PAK2 at 40 nM related to control ULK1.
The target in test [6] is T2, Dual specificity protein kinase TTK (Homo sapiens) (UniProt P33981).
T2 sequence (whole entry): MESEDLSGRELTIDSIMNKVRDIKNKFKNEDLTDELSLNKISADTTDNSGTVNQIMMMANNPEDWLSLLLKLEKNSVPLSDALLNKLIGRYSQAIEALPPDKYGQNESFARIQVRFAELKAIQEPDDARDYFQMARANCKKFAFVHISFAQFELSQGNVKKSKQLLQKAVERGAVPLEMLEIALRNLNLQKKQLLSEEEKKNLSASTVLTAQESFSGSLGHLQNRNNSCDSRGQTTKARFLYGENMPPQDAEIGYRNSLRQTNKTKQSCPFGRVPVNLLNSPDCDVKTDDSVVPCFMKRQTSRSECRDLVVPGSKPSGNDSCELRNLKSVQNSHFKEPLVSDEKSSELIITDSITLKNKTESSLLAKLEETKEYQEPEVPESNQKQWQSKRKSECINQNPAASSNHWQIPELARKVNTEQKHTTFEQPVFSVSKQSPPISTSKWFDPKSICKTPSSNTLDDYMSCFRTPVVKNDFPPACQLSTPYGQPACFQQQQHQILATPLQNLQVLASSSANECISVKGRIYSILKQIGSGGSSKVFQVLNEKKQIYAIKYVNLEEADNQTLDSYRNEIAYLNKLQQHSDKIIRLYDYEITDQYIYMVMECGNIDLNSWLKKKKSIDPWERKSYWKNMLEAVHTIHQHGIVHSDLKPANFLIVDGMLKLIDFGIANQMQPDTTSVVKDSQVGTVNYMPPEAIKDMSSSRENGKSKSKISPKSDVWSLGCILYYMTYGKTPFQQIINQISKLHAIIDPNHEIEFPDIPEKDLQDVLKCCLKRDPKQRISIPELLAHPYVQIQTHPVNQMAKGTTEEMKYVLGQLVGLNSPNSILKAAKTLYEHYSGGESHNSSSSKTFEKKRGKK
Nature of the test: Inhibition of human recombinant TTK at 40 nM related to control ULK1.

Test [7] deals with Cyclin-dependent kinase-like 3 (Homo sapiens) (UniProt Q8IVW4). In words: Inhibition of human recombinant CDKL3 at 500 nM related to control ULK1.
Cyclin-dependent kinase-like 3 (Homo sapiens), sequence (Q8IVW4 whole entry, looked up): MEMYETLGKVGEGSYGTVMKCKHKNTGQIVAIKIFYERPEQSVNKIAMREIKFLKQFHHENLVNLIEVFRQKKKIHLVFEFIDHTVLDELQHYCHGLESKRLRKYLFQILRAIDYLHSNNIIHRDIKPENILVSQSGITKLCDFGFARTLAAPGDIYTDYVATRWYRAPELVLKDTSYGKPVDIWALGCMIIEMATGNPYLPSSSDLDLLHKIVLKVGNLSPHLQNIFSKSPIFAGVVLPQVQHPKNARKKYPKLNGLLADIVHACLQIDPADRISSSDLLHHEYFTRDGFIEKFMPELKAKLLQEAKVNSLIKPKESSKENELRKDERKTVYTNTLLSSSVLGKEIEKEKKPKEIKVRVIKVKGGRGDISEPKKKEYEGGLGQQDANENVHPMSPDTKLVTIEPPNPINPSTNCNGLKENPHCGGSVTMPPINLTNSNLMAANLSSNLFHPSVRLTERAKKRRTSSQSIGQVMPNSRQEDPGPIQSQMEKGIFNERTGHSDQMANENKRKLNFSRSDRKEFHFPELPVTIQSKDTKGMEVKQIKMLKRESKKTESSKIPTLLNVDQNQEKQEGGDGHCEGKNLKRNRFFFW
Test [8] addresses T3, Tyrosine-protein kinase ITK/TSK (Homo sapiens) (UniProt Q08881).
T3 sequence (whole entry): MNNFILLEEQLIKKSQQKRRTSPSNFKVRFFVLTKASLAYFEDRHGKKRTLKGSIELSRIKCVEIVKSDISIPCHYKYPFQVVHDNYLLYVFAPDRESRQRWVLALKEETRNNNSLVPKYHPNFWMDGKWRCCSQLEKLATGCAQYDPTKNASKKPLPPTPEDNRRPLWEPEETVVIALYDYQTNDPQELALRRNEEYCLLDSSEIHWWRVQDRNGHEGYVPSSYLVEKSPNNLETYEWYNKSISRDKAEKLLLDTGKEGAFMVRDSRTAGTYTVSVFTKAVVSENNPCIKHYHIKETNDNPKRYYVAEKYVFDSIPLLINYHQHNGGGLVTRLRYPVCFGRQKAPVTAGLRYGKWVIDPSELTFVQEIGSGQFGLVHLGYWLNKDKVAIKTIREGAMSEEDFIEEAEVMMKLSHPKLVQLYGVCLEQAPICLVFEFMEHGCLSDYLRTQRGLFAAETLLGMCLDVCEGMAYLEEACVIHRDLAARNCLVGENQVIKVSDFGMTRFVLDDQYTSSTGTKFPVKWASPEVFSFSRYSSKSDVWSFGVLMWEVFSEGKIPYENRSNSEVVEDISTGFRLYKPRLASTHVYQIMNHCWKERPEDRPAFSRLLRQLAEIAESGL
Nature of the test: Inhibition of human recombinant ITK at 500 nM related to control ULK1.

In general, inhibition refers to the change of the read-out against control, counted positive when it falls.

Serine/threonine-protein kinase PAK 2 (Homo sapiens), sequence (Q13177 whole entry): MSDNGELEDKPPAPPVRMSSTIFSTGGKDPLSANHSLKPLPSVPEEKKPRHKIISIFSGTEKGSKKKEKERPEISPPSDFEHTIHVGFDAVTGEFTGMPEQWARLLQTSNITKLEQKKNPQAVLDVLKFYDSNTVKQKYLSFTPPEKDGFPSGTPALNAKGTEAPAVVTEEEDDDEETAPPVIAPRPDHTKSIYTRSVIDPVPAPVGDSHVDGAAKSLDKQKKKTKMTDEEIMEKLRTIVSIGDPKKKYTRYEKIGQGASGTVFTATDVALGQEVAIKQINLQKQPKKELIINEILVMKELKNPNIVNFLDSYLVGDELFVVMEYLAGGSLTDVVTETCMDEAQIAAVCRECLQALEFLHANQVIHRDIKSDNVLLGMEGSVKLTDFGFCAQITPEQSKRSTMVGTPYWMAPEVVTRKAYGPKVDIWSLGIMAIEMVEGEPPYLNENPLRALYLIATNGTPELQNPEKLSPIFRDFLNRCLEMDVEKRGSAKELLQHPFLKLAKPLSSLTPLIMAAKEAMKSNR
Calcium/calmodulin-dependent protein kinase type II subunit gamma (Homo sapiens), sequence (Q13555 whole entry): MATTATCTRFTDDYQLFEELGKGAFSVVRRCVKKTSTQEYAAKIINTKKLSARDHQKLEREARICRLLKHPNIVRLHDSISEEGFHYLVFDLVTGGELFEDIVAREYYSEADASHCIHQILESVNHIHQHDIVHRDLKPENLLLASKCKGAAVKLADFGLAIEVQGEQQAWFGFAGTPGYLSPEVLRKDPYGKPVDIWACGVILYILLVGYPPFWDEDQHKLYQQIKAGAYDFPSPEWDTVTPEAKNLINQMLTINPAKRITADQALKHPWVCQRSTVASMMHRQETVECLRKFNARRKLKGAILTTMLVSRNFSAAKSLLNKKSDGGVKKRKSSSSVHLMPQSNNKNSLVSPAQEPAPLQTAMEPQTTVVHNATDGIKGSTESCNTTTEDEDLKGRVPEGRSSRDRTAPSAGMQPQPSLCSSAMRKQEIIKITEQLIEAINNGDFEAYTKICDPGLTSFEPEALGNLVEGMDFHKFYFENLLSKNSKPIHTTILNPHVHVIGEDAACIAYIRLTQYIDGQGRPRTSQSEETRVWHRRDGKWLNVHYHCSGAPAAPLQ
Insulin receptor (Homo sapiens), sequence (P06213 28-758 limits assumed): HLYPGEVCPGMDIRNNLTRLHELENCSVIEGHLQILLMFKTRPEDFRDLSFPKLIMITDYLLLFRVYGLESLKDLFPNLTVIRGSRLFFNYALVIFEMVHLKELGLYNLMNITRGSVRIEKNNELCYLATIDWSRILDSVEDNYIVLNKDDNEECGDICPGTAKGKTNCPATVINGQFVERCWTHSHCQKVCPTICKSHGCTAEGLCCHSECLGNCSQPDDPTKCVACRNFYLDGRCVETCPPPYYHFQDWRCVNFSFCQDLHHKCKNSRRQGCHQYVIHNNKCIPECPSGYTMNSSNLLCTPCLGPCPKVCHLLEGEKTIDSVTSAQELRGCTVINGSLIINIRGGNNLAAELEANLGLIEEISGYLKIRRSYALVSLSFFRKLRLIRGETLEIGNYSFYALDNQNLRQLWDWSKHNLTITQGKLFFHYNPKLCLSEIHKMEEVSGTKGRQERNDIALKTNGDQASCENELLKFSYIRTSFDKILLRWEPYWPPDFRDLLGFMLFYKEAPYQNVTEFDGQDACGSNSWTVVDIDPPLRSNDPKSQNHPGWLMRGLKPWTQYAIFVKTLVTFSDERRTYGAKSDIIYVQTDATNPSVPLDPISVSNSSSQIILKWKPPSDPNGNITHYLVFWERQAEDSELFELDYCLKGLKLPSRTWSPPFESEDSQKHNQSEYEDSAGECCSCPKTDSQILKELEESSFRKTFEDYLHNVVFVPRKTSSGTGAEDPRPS
Insulin receptor (Homo sapiens), sequence (P06213 763-1382 limits assumed): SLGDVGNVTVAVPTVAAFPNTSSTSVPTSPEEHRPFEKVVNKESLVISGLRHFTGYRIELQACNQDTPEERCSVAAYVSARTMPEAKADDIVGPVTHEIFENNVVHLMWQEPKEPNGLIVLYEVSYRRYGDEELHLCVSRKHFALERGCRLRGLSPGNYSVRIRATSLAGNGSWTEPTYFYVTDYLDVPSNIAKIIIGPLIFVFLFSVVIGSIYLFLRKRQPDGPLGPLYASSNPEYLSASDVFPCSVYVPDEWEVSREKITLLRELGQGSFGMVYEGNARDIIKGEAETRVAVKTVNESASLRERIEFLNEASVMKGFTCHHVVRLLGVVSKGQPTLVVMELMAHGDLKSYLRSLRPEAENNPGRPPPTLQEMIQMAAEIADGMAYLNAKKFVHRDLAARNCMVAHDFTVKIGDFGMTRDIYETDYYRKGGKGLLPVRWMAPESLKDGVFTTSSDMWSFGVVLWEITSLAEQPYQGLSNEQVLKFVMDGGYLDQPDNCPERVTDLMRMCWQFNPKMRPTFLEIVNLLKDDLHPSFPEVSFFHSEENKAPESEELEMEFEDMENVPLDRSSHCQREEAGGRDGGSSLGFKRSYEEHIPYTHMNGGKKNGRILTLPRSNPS

Regarding `CC(C)[C@H](NC(=O)c1cc(-c2cnn3cc(-c4ccc(OCCN5CCCCC5)cc4)cnc23)cs1)C(F)(F)F`, the inhibition in test [1], in test [3] and in test [4] was 0% each time. The fold change (FC) in test [2] was found to be 0.25.
For `O=C(N[C@@H](C1CC1)C(F)(F)F)c1cc(-c2cnn3cc(-c4ccc(F)cc4)cnc23)cs1`, the fold change (FC) in test [5] worked out at 0; in test [6] it was 0.45.
Consider `CNC(=O)c1ccccc1Oc1nc(Nc2cc(OC)c(OC)c(OC)c2)ncc1Br`, for which the fold change (FC) was determined as 0 in test [7] and 0.01 in test [8].
